Here are results for nine molecules from US12583818B2 (DAEGU-GYEONGBUK MEDICAL INNOVATION FOUNDATION, priority 2020, dated 2026).

Where two headings read alike, the source gives them in different places.

Assay [1] concerns the target T1, Pin1 (Homo sapiens, UniProt Q13526).
T1 construct: purchased Anaspec
Nature of the assay: Evaluation of Pin1 enzyme inhibitory activity (Sensolyte Green Pin1 assay kit). It counts as biochemical. The procedure, abridged:
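Pin1 activity was measured with a fluorogenic kit assay (Sensolyte Green) using substrate prepared at 1 μM and protein at 50 μg/ml, both pre-mix concentrations. Compound working solutions were 100, 10, 1 or 0.1 μM, and reactions ran 2 h at room temperature in the dark, read at 490/520 nm. Inhibition was graded A–D by concentration.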

For assay [2], the system named is A2780 cells (ovarian cancer cells). Nature of the assay: Cell viability of A2780 cells (Cell-titer Glo). The settings on record: Homo sapiens. Type of assay: cell-based. Here is the method:
(§1) In order to confirm the inhibitory effect of the compound represented by formula 1 according to the present invention on the growth of MCF7, MCF7-SP, A2780 or A2780-SP cells, the following experiment was performed, and the results are shown in Tables 4 and 5 below.
In addition, A2780 cells (ovarian cancer cells) were plated in a 96-well plate at the density of 3000 viable cells per well, and cultured in RPMI-1640 medium supplemented with 10% FBS and 1% penicillin/streptomycin.
On the next day of culture, the cells were treated with the compound of Examples 57, and 69 to 144, followed by culture for 3 days. Cell viability was evaluated by Cell-titer Glo (Promega, WC, USA), and luciferase activity was detected using a Tecan plate reader (Biocompare, USA).

Assay [3] relates to A2780-SP cells (ovarian cancer stem cells). In words: Sphere cell viability of A2780-SP cells (Cell-titer Glo). It counts as cell-based. Here is the method: as §1
On the other hand, A2780-SP cells (ovarian cancer stem cells) were plated in an Ultra-Low Attachment round bottom 96-well plate (corning) at the density of 1,500 viable cells per well, and cultured in cancer stem cell medium. The cancer stem cell medium is composed of the neurobasal medium supplemented with 20 ng/ml of bFGF, 10 ng/ml of EGF, […] of amphotericin B, HEPES, Glutamax and B27.
On the next day of culture, the cells were treated with the compound of Examples 57, and 69 to 144, followed by culture for 8 days. The medium containing the compound was added thereto once again on the 4th day. Sphere cell viability was evaluated by Cell-titer Glo (Promega, WC, USA), and luciferase activity was detected using a Tecan plate reader (Biocompare, USA).

Setting [4] is: Table 2, read-out: concentration at which Pin1 inhibitory activity was exhibited.
Where [5] appears, read: concentration at which the Pin1 enzyme activity is inhibited, 2 hours at room temperature, fluorescence 490 nm/520 nm, read-out: Pin 1 inhibition.
Setting [6] is: 72 h, cell viability, culture for 3 days, read-out: A2780.
Where [7] appears, read: 192 h, sphere cell viability, culture for 8 days, read-out: A2780-SP.
Setting [8] is: Table 5, read-out: the concentration (second list of b710, cell line not named; matches A2780-SP column).
Setting [9] is: A2780, Table 5, read-out: A2780 cell concentration.

T1 sequence (Q13526 whole entry): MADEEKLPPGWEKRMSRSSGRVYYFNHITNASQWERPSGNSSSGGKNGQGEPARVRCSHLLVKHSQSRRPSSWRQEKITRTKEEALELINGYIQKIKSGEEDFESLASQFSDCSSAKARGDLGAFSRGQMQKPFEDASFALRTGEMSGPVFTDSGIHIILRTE

Consider `O=S(=O)(Nc1ccccc1Cc1c[nH]c2ccc(Cl)cc12)c1ccc(OCCCN2CCNCC2)cc1` [Example 150, N-(2-((5-chloro-1H-indol-3-yl)methyl)phenyl)-4-(3-(piperazin-1-yl)propoxy)benzenesulfonamide], for which the IC50 was under 1000 nM in assay [1] (setting [4]); under 1000 nM in assay [1] (setting [5]); over 10000 nM in assay [2] (setting [6]); under 1000 nM in assay [3] (setting [7]); under 1000 nM in assay [3] (setting [8]).
As for `CC(CCc1c[nH]c2ccc(Cl)cc12)NS(=O)(=O)c1ccc(OCCCN2CCN(C)CC2)cc1` (stereo not drawn) [Example 151], the IC50 in assay [1] (setting [4]) is under 1000 nM; in assay [1] (setting [5]), under 1000 nM; in assay [2] (setting [6]), over 10000 nM; in assay [3] (setting [7]), under 1000 nM; in assay [3] (setting [8]), under 1000 nM.
As to `CC(CCc1c[nH]c2ccc(Cl)cc12)NS(=O)(=O)c1ccc(OCCCN2CCNCC2)cc1` (stereo not drawn) [Example 152, N-(4-(5-chloro-1H-indol-3-yl)butan-2-yl)-4-(3-(piperazin-1-yl)propoxy)benzenesulfonamide], the IC50 in assay [1] (setting [4]) is under 1000 nM; in assay [1] (setting [5]), under 1000 nM; in assay [2] (setting [6]), over 10000 nM; in assay [3] (setting [7]), under 1000 nM; in assay [3] (setting [8]), under 1000 nM.
Turning to `O=S(=O)(NCCCc1c[nH]c2ccc(Br)cc12)c1ccc(OCCCN2CCNCC2)cc1` [Example 153, N-(3-(5-bromo-1H-indole-3-yl)propyl)-4-(3-(piperazine-1-yl)propoxy)benzenesulfonamide], the IC50 in assay [1] (setting [4]) was under 1000 nM; in assay [1] (setting [5]), under 1000 nM; in assay [2] (setting [6]), 1000 to 10000 nM; in assay [2] (setting [9]) it was under 10000 nM; in assay [3] (setting [7]), under 1000 nM; in assay [3] (setting [8]), under 1000 nM.
As to `CN1CCN(CCCOc2ccc(S(=O)(=O)NCCCc3c[nH]c4ccc(Br)cc34)cc2)CC1` [Example 154, N-(3-(5-bromo-1H-indol-3-yl)propyl)-4-(3-(4-methylpiperazin-1-yl)propoxy)benzenesulfonamide], the IC50 in assay [1] (setting [4]) is under 1000 nM; in assay [1] (setting [5]) it was under 1000 nM; in assay [2] (setting [6]), 1000 to 10000 nM; in assay [2] (setting [9]) it was under 10000 nM; in assay [3] (setting [7]), under 1000 nM; in assay [3] (setting [8]), under 1000 nM.
As to `Cc1[nH]c2ccc(Cl)cc2c1CCCNS(=O)(=O)c1ccc(OCCCN2CCNCC2)cc1` [Example 157, N-(3-(5-chloro-2-methyl-1H-indol-3-yl)propyl)-4-(3-(piperazin-1-yl)propoxy)benzenesulfonamide], the IC50 was 1000 to 10000 nM in assay [1] (setting [5]), over 10000 nM in assay [2] (setting [6]), under 1000 nM in assay [3] (setting [7]) and under 1000 nM in assay [3] (setting [8]).
Regarding `CN1CCN(CCCOc2ccc(S(=O)(=O)NCCc3c[nH]c4ccc(Cl)cc34)cc2)CC1` [Example 158, N-(2-(5-chloro-1H-indol-3-yl)ethyl)-4-(3-(4-methylpiperazin-1-yl)propoxy)benzenesulfonamide], the IC50 is under 1000 nM in assay [1] (setting [4]); under 1000 nM in assay [1] (setting [5]); over 10000 nM in assay [2] (setting [6]); under 1000 nM in assay [3] (setting [7]); under 1000 nM in assay [3] (setting [8]).
In the case of `O=S(=O)(NCCc1c[nH]c2ccc(Cl)cc12)c1ccc(OCCCN2CCNCC2)cc1` [Example 159, N-(2-(5-chloro-1H-indol-3-yl)ethyl)-4-(3-(piperazin-1-yl)propoxy)benzenesulfonamide], the IC50 in assay [1] (setting [4]) was under 1000 nM; in assay [1] (setting [5]) it was under 1000 nM; in assay [2] (setting [6]), over 10000 nM; in assay [3] (setting [7]), under 1000 nM; in assay [3] (setting [8]), under 1000 nM.
Regarding `O=S(=O)(NCCCc1c[nH]c2ccc(Cl)cc12)c1ccc(OCCCn2cncn2)cc1` [Example 160, 4-(3-(1H-1,2,4-triazol-1-yl)propoxy)-N-(3-(5-chloro-1H-indol-3-yl)propyl)benzenesulfonamide], the IC50 is under 1000 nM in assay [1] (setting [4]), under 1000 nM in assay [1] (setting [5]), over 10000 nM in assay [2] (setting [6]) and over 10000 nM in assay [3] (setting [7]).
